Legend:
[1] = biological target: T1, Cholecystokinin receptor type A (Rattus norvegicus, UniProt P30551); test: Inhibition of [125I]Cholecystokinin-8 (125I-CCK-8) binding to Cholecystokinin type A receptor of rat pancreatic membranes; type: cell membranes, Membrane
T1 sequence (P30551 whole entry): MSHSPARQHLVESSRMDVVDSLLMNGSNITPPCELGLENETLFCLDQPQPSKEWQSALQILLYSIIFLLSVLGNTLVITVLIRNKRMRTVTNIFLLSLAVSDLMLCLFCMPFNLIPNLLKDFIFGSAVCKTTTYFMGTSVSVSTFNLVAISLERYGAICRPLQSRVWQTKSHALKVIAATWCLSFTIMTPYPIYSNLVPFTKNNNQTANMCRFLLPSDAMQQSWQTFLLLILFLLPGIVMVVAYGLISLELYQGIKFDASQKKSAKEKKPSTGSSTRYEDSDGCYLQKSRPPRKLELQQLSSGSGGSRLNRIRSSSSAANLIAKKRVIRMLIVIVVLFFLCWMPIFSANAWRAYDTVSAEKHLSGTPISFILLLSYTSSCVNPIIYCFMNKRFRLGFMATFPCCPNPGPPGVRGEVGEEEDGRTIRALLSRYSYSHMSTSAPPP

[2] = Selectivity for cholecystokinin A and B receptors
[3] = biological target: T1, Cholecystokinin receptor type A; test: Inhibition of [125I]Cholecystokinin-8 binding to Cholecystokinin type A receptor of rat pancreatic membranes; type: cell membranes, Membrane

Compound	IC50 [1] [µM]	Selectivity [2]	IC50 [3] [µM]
Cc1cccc(NC(=O)NC2N=C(c3ccccc3F)c3ccccc3N(CC(=O)N3CC4CCC(CC4)C3)C2=O)c1 (configuration not stated)	0.062	710	
COc1cccc(NC(=O)NC2N=C(c3ccccc3F)c3cccc(C)c3N(CC(=O)N3CC4CCC(CC4)C3)C2=O)c1 (configuration not stated)	0.0073	7.3	
Cc1cccc(NC(=O)NC2N=C(c3ccccc3F)c3cccc(C)c3N(CC(=O)N3CC4CCC(CC4)C3)C2=O)c1 (configuration not stated)	0.017	36	
Cc1cccc2c1N(CC(=O)N1CC3CCC(CC3)C1)C(=O)C(NC(=O)Nc1cccc(-c3nn[nH]n3)c1)N=C2c1ccccc1F (stereo in doubt; (-)-11) [listing 1 of 2 here]			0.67
CSc1cccc(NC(=O)NC2N=C(c3ccccc3F)c3cccc(C)c3N(CC(=O)N3CC4CCC(CC4)C3)C2=O)c1 (configuration not stated)	0.021	57	
Cc1cccc2c1N(CC(=O)N1CC3CCC(CC3)C1)C(=O)C(NC(=O)Nc1cccc(-c3nn[nH]n3)c1)N=C2c1ccccc1F (single isomer, unassigned; (+)) [listing 1 of 2 here]			0.0092
Cc1cccc2c1N(CC(=O)N1CC3CCC(CC3)C1)C(=O)C(NC(=O)Nc1cccc(Cl)c1)N=C2c1ccccc1F (configuration not stated)	0.0074	3.7	
Cc1cccc2c1N(CC(=O)N1CC3CCC(CC3)C1)C(=O)C(NC(=O)Nc1cccc(C(=O)O)c1)N=C2c1ccccc1F (configuration not stated)	0.16	170	
Cc1cccc2c1N(CC(=O)N1CC3CCC(CC3)C1)C(=O)C(NC(=O)Nc1cccc(-c3nn[nH]n3)c1)N=C2c1ccccc1F (stereo in doubt; (-)-11) [listing 2 of 2 here]		110	
Cc1cccc2c1N(CC(=O)N1CC3CCC(CC3)C1)C(=O)C(NC(=O)Nc1cccc(-c3nn[nH]n3)c1)N=C2c1ccccc1F (stereo in doubt; 11) [listing 1 of 2 here]	0.014		
Cc1cccc2c1N(CC(=O)N1CC3CCC(CC3)C1)C(=O)C(NC(=O)Nc1cccc(Br)c1)N=C2c1ccccc1F (configuration not stated)	0.0051	2.8	
Cc1cccc2c1N(CC(=O)N1CC3CCC(CC3)C1)C(=O)C(NC(=O)Nc1cccc(-c3nn[nH]n3)c1)N=C2c1ccccc1F (stereo in doubt; 11) [listing 2 of 2 here]		21	
CC(=O)c1cccc(NC(=O)NC2N=C(c3ccccc3F)c3cccc(C)c3N(CC(=O)N3CC4CCC(CC4)C3)C2=O)c1 (configuration not stated)	0.013	15	
Cc1cccc2c1N(CC(=O)N1CC3CCC(CC3)C1)C(=O)C(NC(=O)Nc1cccc(-c3nn[nH]n3)c1)N=C2c1ccccc1F (single isomer, unassigned; (+)) [listing 2 of 2 here]		24	

— ChEMBL document CHEMBL1130373, “Dual CCK-A and -B receptor antagonists (I) C9-methyl-1,4-benzodiazepines” (Bioorg Med Chem Lett, 1997)
